The supplement of paper PMC11061612

Assays:
Experiment in all cases: Bliss excess, mean over the matrix (fraction); higher = more synergy
[1] = system: YAPC (Pancreatic Carcinoma)
In short: (§1)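 Bliss excess equals the observed combination effect minus the expected value EA + EB − EA·EB, where EA and EB are the effects of each agent alone. Combination Emax is the second-highest inhibition within the matrix. Inhibition was scaled from CellTiter-Glo 2.0 luminescence, with 0 set by vehicle wells and 1 by blank wells, after 72 hours of two-drug dosing of cells plated in 1536-well plates.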

[2] = system: HH (T-Cell Non-Hodgkin's Lymphoma)
In short: as §1

[3] = system: CAL-72 (Osteosarcoma)
In short: as §1

[4] = system: SW1710 (Bladder Carcinoma)
In short: as §1

[5] = system: EW-11 (Ewing's Sarcoma)
In short: as §1

[6] = system: NCI-H524 (Small Cell Lung Carcinoma)
In short: as §1

[7] = system: SAS (Oral Cavity Carcinoma)
In short: as §1

[8] = system: KYAE-1 (Esophageal Adenocarcinoma)
In short: as §1

[9] = system: ESS-1 (Other Solid Carcinomas)
In short: as §1

[10] = system: LOXIMVI (Melanoma)
In short: as §1

[11] = system: SNU-16 (Gastric Carcinoma)
In short: as §1

[12] = system: BE2-M17 (Neuroblastoma)
In short: as §1

[13] = system: ALL-PO (B-Lymphoblastic Leukemia)
In short: as §1

[14] = system: Detroit562 (Head and Neck Carcinoma)
In short: as §1

[15] = system: NCI-H1568 (Lung Adenocarcinoma)
In short: as §1

[16] = system: CAL-33 (Oral Cavity Carcinoma)
In short: as §1

[17] = system: HuH-7 (Hepatocellular Carcinoma)
In short: as §1

[18] = system: NCI-H2722 (Mesothelioma)
In short: as §1

[19] = system: NUGC-4 (Gastric Carcinoma)
In short: as §1

[20] = system: LS-123 (Colorectal Carcinoma)
In short: as §1

Row | SMILES | Bliss excess [1] | Bliss excess [2] | Bliss excess [3] | Bliss excess [4] | Bliss excess [5] | Bliss excess [6] | Bliss excess [7] | Bliss excess [8] | Bliss excess [9] | Bliss excess [10] | Bliss excess [11] | Bliss excess [12] | Bliss excess [13] | Bliss excess [14] | Bliss excess [15] | Bliss excess [16] | Bliss excess [17] | Bliss excess [18] | Bliss excess [19] | Bliss excess [20]
1 | CN(CCO)CC[C@H](CSc1ccccc1)Nc1ccc(S(=O)(=O)NC(=O)c2ccc(N3CCC([C@@H](O)c4ccccc4-c4ccc(Cl)cc4)CC3)cc2)cc1S(=O)(=O)C(F)(F)F [AZD4320] + CC(=O)O[C@H]1C(=O)[C@@]2(C)[C@H]([C@H](OC(=O)c3ccccc3)[C@]3(O)C[C@H](OC(=O)[C@H](O)[C@@H](NC(=O)c4ccccc4)c4ccccc4)C(C)=C1C3(C)C)[C@]1(OC(C)=O)CO[C@@H]1C[C@@H]2O [Paclitaxel] (first compound max 1 µM, 7x7, partner max 3 µM) | -0.0321 | 0.254 | 0.19 | 0.141 | 0.0303 | 0.0333 | 0.0322 | 0.0811 | 0.0663 | 0.0164 | 0.0287 |  |  |  |  |  |  |  |  | 
2 | CN(CCO)CC[C@H](CSc1ccccc1)Nc1ccc(S(=O)(=O)NC(=O)c2ccc(N3CCC([C@@H](O)c4ccccc4-c4ccc(Cl)cc4)CC3)cc2)cc1S(=O)(=O)C(F)(F)F [AZD4320] + CCN(CCO)CCCOc1ccc2c(Nc3cc(CC(=O)Nc4cccc(F)c4)[nH]n3)ncnc2c1 [AZD2811] (first compound max 1 µM, 7x7, partner max 1 µM) | -0.0464 | -0.0135 | 0.0528 | -0.0291 | -0.0439 | -0.0163 | -0.037 | -0.0149 | 0.21 | 0.0896 | 0.0638 | 0.12 | -0.009 | 0.0043 | -0.0102 | 0.0228 | -0.0268 | -0.024 | -0.0407 | 
3 | CN(CCO)CC[C@H](CSc1ccccc1)Nc1ccc(S(=O)(=O)NC(=O)c2ccc(N3CCC([C@@H](O)c4ccccc4-c4ccc(Cl)cc4)CC3)cc2)cc1S(=O)(=O)C(F)(F)F [AZD4320] + C[C@@H]1COCCN1C2=NC(=NC(=C2)C3(CC3)[S@](=N)(=O)C)C4=C5C=CNC5=NC=C4 [AZD6738] (first compound max 1 µM, 7x7, partner max 10 µM) | -0.0423 | -0.0454 | 0.05 | -0.0455 | 0.012 | -0.0467 | -0.0255 | 0.0036 | -0.0296 | 0.0028 | 0.0219 | -0.0458 | 0.0019 | -0.015 | -0.0135 | 0.0019 | -0.0144 | -0.0307 | -0.0172 | 
4 | CN(CCO)CC[C@H](CSc1ccccc1)Nc1ccc(S(=O)(=O)NC(=O)c2ccc(N3CCC([C@@H](O)c4ccccc4-c4ccc(Cl)cc4)CC3)cc2)cc1S(=O)(=O)C(F)(F)F [AZD4320] + C[C@@H](Nc1cc(F)cc(F)c1)c1cc(C(=O)N(C)C)cc2c(=O)cc(N3CCOCC3)oc12 [AZD8186] (first compound max 1 µM, 7x7, partner max 3 µM) | -0.0258 | 0.012 |  | 0.0263 | -0.0358 | 0.0121 | 0.0033 | 0.011 | -0.01 | -0.0239 | 0.0286 | 0.0115 | 0.0509 | 0.0261 | -0.0013 | -0.0039 | 0.0262 | -0.0422 | 0.0385 | 
5 | CN(CCO)CC[C@H](CSc1ccccc1)Nc1ccc(S(=O)(=O)NC(=O)c2ccc(N3CCC([C@@H](O)c4ccccc4-c4ccc(Cl)cc4)CC3)cc2)cc1S(=O)(=O)C(F)(F)F [AZD4320] + Cc1cc2ncnn2cc1Nc1ncc2c(n1)n(C1CCOCC1)c(=O)n2C [AZD7648] (first compound max 1 µM, 7x7, partner max 10 µM) | -0.0465 | -0.0459 | 0.0278 | -0.058 | -0.0468 | -0.044 | -0.0533 | -0.0461 | -0.0373 | 0.023 | 0.0237 | -0.0059 | 0.0085 | -0.0281 | -0.0325 | -0.009 | 0.004 | -0.0695 | -0.0725 | 
6 | COc1nnc2ccc(N3CCC(c4ccc(OCCN5CCN(C)C(=O)[C@H]5C)cc4)CC3)nn12 [AZD5153] + CN(CC[C@H](CSC1=CC=CC=C1)NC2=C(C=C(C=C2)S(=O)(=O)NC(=O)C3=CC=C(C=C3)N4CCC(CC4)[C@H](C5=CC=CC=C5C6=CC=C(C=C6)Cl)O)S(=O)(=O)C(F)(F)F)CCO [AZD4320] (first compound max 1 µM, 7x7, partner max 1 µM) |  |  |  |  |  |  |  |  |  |  |  | 0.0682 | 0.0079 | 0.0847 | -0.044 | -0.0117 | 0.11 | 0.0387 | 0.0299 | 
7 | Cc1cc2ncnn2cc1Nc1ncc2c(n1)n(C1CCOCC1)c(=O)n2C [AZD7648] + COc1cc([C@@H]2c3cc4c(cc3[C@@H](O[C@@H]3O[C@@H]5CO[C@@H](C)O[C@H]5[C@H](O)[C@H]3O)[C@H]3COC(=O)[C@H]23)OCO4)cc(OC)c1O [Etoposide] (first compound max 10 µM, 7x7, partner max 10 µM) | 0.0217 | -0.0254 | 0.0314 | -0.0119 | 0.0002 | 0.101 | 0.118 | 0.0032 | 0.113 | 0.0988 | 0.0953 |  |  |  |  |  |  |  |  | 0.0811
8 | CC(=O)c1c(C)c2cnc(Nc3ccc(N4CCNCC4)cn3)nc2n(C2CCCC2)c1=O [Palbociclib] + CN(CC[C@H](CSC1=CC=CC=C1)NC2=C(C=C(C=C2)S(=O)(=O)NC(=O)C3=CC=C(C=C3)N4CCC(CC4)[C@H](C5=CC=CC=C5C6=CC=C(C=C6)Cl)O)S(=O)(=O)C(F)(F)F)CCO [AZD4320] (first compound max 10 µM, 7x7, partner max 1 µM) |  |  |  |  |  |  |  |  |  |  |  | 0.0726 | 0.0126 | 0.0001 | -0.0747 | -0.0398 | -0.0254 | -0.0497 | -0.0067 | 
9 | N#Cc1cnc(Nc2cc(NC[C@H]3CNCCO3)c(C(F)(F)F)cn2)cn1 [SRA737] + C=CCn1c(=O)c2cnc(Nc3ccc(N4CCN(C)CC4)cc3)nc2n1-c1cccc(C(C)(C)O)n1 [AZD1775] (first compound max 10 µM, partner max 1 µM) | 0.0265 | 0.0569 | 0.0934 | 0.0292 | 0.0992 | 0.108 | 0.0236 | 0.0021 | 0.12 | 0.0086 | 0.109 |  |  |  |  |  |  |  |  | -0.0025
10 | N#Cc1cnc(Nc2cc(NC[C@H]3CNCCO3)c(C(F)(F)F)cn2)cn1 [SRA737] + CCc1c2c(nc3ccc(O)cc13)-c1cc3c(c(=O)n1C2)COC(=O)[C@]3(O)CC [SN-38] (first compound max 10 µM, 7x7, partner max 0.3 µM) | -0.041 | 0.017 | 0.0489 | 0.0736 | -0.132 | 0.113 | -0.0333 | 0.0142 | -0.0091 | -0.0354 | 0.0524 |  |  |  |  |  |  |  |  | -0.0163
11 | N#Cc1cnc(Nc2cc(NC[C@H]3CNCCO3)c(C(F)(F)F)cn2)cn1 [SRA737] + Nc1ccn([C@@H]2O[C@H](CO)[C@@H](O)C2(F)F)c(=O)n1 [Gemcitabine] (first compound max 10 µM, 7x7, partner max 0.3 µM) | 0.0439 | 0.0878 | 0.0042 | 0.164 | -0.0557 | 0.0346 | 0.105 | 0.0075 | 0.0477 | -0.0122 | -0.103 |  |  |  |  |  |  |  |  | 0.0948
12 | N#Cc1cnc(Nc2cc(NC[C@H]3CNCCO3)c(C(F)(F)F)cn2)cn1 [SRA737] + O=c1[nH]cc(F)c(=O)[nH]1 [5-Fluorouracil] (first compound max 10 µM, 7x7, partner max 20 µM) | 0.0062 | 0.0123 | 0.0294 | -0.0212 | -0.0246 | 0.0593 | -0.0104 | 0.0202 | -0.0297 | -0.0241 | 0.0632 |  |  |  |  |  |  |  |  | -0.0135
13 | C[C@@H](c1ccc2nccn2c1)n1nnc2ncc(-c3cnn(C)c3)nc21 [Savolitinib] + CN(CC[C@H](CSC1=CC=CC=C1)NC2=C(C=C(C=C2)S(=O)(=O)NC(=O)C3=CC=C(C=C3)N4CCC(CC4)[C@H](C5=CC=CC=C5C6=CC=C(C=C6)Cl)O)S(=O)(=O)C(F)(F)F)CCO [AZD4320] (first compound max 1 µM, 7x7, partner max 1 µM) |  |  |  |  |  |  |  |  |  |  |  | -0.0337 | -0.0307 | -0.0189 | -0.0571 | -0.0104 | -0.0064 | -0.0433 | -0.0363 | 
